{
  "source": "patent US20170290820A1",
  "about": "“METHODS AND COMPOSITIONS FOR TREATING BETA-THALASSEMIA AND SICKLE CELL DISEASE” (Academia Sinica, priority 2013, published 2017)",
  "key": {"[1]": {"test_system": "ε globin", "test": "absolute quantitative RT-PCR, proportion of ε globin mRNA", "format": "cell-based", "conditions": "primary human erythroid cells, at IC50, 3 days; mock 0.0%", "description": "(§1) After 3 days of drug-treatment, the total RNA was extracted by RNA Spin mini kit (Ge-Healthcare) and reverse-transcription was performed by using superscript II (Invitrogen) followed the manufactors instruction. Quantitative PCR was performed on LightCycler with using STBR green master mix followed the manufactors instruction (Roche). The absolute quantitative RT-PCR was calculated by the standard curve with supplying a known copy number of plasmids. The relative quantitative RT-PCR was normalized to the expression levels of the β-actin and compared to the mock control.\n(§2) To evaluate the specificity of S51021, SS-2394, HU, and NaB in mediating globin genes activation, the amounts of individual P3-liked globin mRNAs were measured by absolute quantitative RT-PCR.\n(§3) The primary human erythroid cells were treated with HU (145.9 μM), NaB (221.6 μM), S51021 (21.8 μM) or SS2394 (2.3 μM) for 3 days, and the expression levels of each globin mRNA were estimated by absolute quantitative RT-PCR analysis. The proportions of individual 3-like globin chains among the total 3-like globin mRNA are shown. Data are presented as the mean±SEM, N=3."}, "[2]": {"test_system": "γ globin", "test": "absolute quantitative RT-PCR, proportion of γ globin mRNA", "format": "cell-based", "conditions": "primary human erythroid cells, at IC50, 3 days; mock 7.9%", "description": "as §1, §2, §3"}, "[3]": {"test_system": "β globin", "test": "absolute quantitative RT-PCR, proportion of β globin mRNA", "format": "cell-based", "conditions": "primary human erythroid cells, at IC50, 3 days; mock 88.8%", "description": "as §1, §2, §3"}, "[4]": {"test_system": "δ globin", "test": "absolute quantitative RT-PCR, proportion of δ globin mRNA", "format": "cell-based", "conditions": "primary human erythroid cells, at IC50, 3 days; mock 3.3%", "description": "as §1, §2, §3"}, "[5]": {"test_system": "p38", "test": "p38 phosphorylation by western blot", "format": "cell-based, human", "conditions": "FIG. 5; western blot p-p38/p38, at IC50", "description": "FIG. 5 is a graph showing the phosphorylation status of p38 in primary erythroid cells treating with HU, NaB, S51021, or SS-2394. Upper panel: For detection of the phosphorylation status of p38, twenty microgram of total cell lysate extracted from the primary human erythroid cells treated with HU (145.9 μM), NaB (221.6 μM), S51021 (21.8 μM) or SS-2394 (2.3 μM) was analyzed by Western blot analysis using antibody against p-p38 or p38. Lower panel: The signal intensity was quantified by an image-analyzing software. The intensity of p-p38 levels of mock control cells was set as 1. Data are shown as the mean±SEM, N=5.\n(§4) After 3 days of compound treatment, total protein or histone of the drug-treated cells was extracted. Histone was extracted by histone extraction buffer (10 mM HEPES, 1.5 mM MgCl2, 10 mM KCl, 0.5 mM DTT, 1.5 mM PMSF and 0.2 N HCl) at 4° C. overnight then centrifuged at 13,000 rpm for 5 minutes and collected the supernatant. Thirty microgram of histone extracts were separated in 15% SDS-PAGE and blotted onto PVDF membrane. After blocking with 5% non-fat milk in TBST, the membrane was then incubated with primary antibody against total histone H4 or total acetyl histone H4 at 4° C. overnight. […]"}, "[6]": {"test_system": "histone H4", "test": "histone H4 acetylation by western blot", "format": "cell-based, human", "conditions": "FIG. 6; for global acetylation status of histone H4 (total acH4): at IC50, 3 days", "from_the_text": "FIG. 6 is a graph showing the acetylation status of histone H4 in primary erythroid cells treating with HU, NaB, S51021 or SS-2394. […] Total histones were extracted by histone extraction buffer. Thirty microgram of histone extract was used for western blot analysis and immunobloted with antibody against histone H4 or acetylated histone H4. Lower panel: The signal intensity was quantified by an image-analyzing software. The intensity of mock control was set as 1. Data are shown as the mean±SEM, N=4.\nas §4, with “overnight. Total protein was extracted by modified RIPA (50 mM Tris-HCl pH7.8, 150 mM NaCl, 1% NP-40, 0.5% sodium deoxycholate, 0.1% SDS, 1 mM EGTA, 5 mM EDTA, 10 mM NaF, 1 mM NaV3O4 and 1× complete, EDTA-free Protease Inhibitor Cocktail). Thirty microgram of total protein extracts were separate by 10% SDS-PAGE and blotted onto PVDF membrane. After blocking with 5% non-fat milk in TBST, the membrane was incubated with primary antibody against BCL11A, p38, p-p38, γ-globin or β-actin at 4° C. overnight.” for “overnight.”\nSeveral HDACi, such as NaB, apicidin, and TSA, have been reported to function as HbF-inducing agents. […] To realize whether the epigenetic modification of histone H4 is manipulated by S51021 or SS-2394 treatment, primary human adult erythroid cells were treated with S51021, SS-2394, HU, or NaB for 3 days, and the acetylation status of cellular histone H4 was then analyzed (FIG. 6)."}, "[7]": {"test_system": "primary human erythroid cells", "test": "AlamarBlue cell viability / proliferation assay", "conditions": "Table 3; primary human erythroid cells, 3 days, proliferation reduced by 50%"}},
  "data": [
    {"smiles": "NC(=O)NO", "note": "[HU, hydroxyurea]", "values": [
      {"measurement": "ε globin proportion of total β-like globin mRNA", "setting": "[1]", "value": "0.1 ± 0.0", "unit": "%"},
      {"measurement": "γ globin proportion of total β-like globin mRNA", "setting": "[2]", "value": "11.2 ± 1.1", "unit": "%"},
      {"measurement": "β globin proportion of total β-like globin mRNA", "setting": "[3]", "value": "84.2 ± 1.3", "unit": "%"},
      {"measurement": "δ globin proportion of total β-like globin mRNA", "setting": "[4]", "value": "4.5 ± 0.2", "unit": "%"},
      {"measurement": "phosphorylation level of p38", "setting": "[5]", "value": "significantly increased"},
      {"measurement": "histone deacetylase inhibitor or not (conclusion from acH4)", "setting": "[6]", "value": "not histone deacetylase inhibitors"},
      {"measurement": "global acetylation status of histone H4 (total acH4)", "setting": "[6]", "value": "not dramatically alternated"},
      {"measurement": "IC50", "setting": "[7]", "value": 146, "unit": "µM"}
    ]},
    {"smiles": "CCCC(=O)[O-].[Na+]", "note": "[NaB, sodium butyrate]", "values": [
      {"measurement": "ε globin proportion of total β-like globin mRNA", "setting": "[1]", "value": "0.1 ± 0.0", "unit": "%"},
      {"measurement": "γ globin proportion of total β-like globin mRNA", "setting": "[2]", "value": "10.8 ± 1.0", "unit": "%"},
      {"measurement": "β globin proportion of total β-like globin mRNA", "setting": "[3]", "value": "87.4 ± 1.0", "unit": "%"},
      {"measurement": "δ globin proportion of total β-like globin mRNA", "setting": "[4]", "value": "1.8 ± 0.1", "unit": "%"},
      {"measurement": "phosphorylation level of p38", "setting": "[5]", "value": "significantly increased"},
      {"measurement": "global acetylation status of histone H4 (total acH4)", "setting": "[6]", "value": "significantly enhanced"},
      {"measurement": "IC50", "setting": "[7]", "value": 222, "unit": "µM"}
    ]}
  ]
}
